A short description of data set [1]: Induction of progranulin secretion in mouse BV-2 cells. In kind it is functional, cell-based.
The target of data set [2] is Voltage-gated inwardly rectifying potassium channel KCNH2 (Homo sapiens, UniProt Q12809). Description: Inhibition of human ERG. The class given is toxicity.
A short description of data set [3]: Apparent permeability across apical to basolateral side in MDCK-MDR1 cells. In kind it is ADME, cell-based, Canis lupus familiaris. The following applies: dog.
Data set [4] can be described thus: Efflux ratio of apparent permeability in MDCK-MDR1 cells. The class given is ADME, cell-based, Canis lupus familiaris. The following applies: dog.
Data set [5] in a line: Protein binding in mouse assessed as unbound fraction. In kind it is ADME.
A short description of data set [6]: Protein binding in human assessed as unbound fraction. In kind it is ADME.
The nature of data set [7]: Protein binding in mouse brain assessed as unbound fraction. In kind it is ADME, tissue-based.
Data set [8] is described as follows: Metabolic stability in mouse hepatocytes assessed as half life measured upto 120 mins. In kind it is ADME, cell-based, Hepatocyte.
Data set [9] is described as follows: Metabolic stability in mouse hepatocytes assessed as intrinsic clearance. In kind it is ADME, cell-based, Hepatocyte.
Data set [10] is described as follows: Metabolic stability in human hepatocytes assessed as half life measured upto 120 mins. In kind it is ADME, cell-based, Hepatocyte.
A short description of data set [11]: Metabolic stability in human hepatocytes assessed as intrinsic clearance. In kind it is ADME, cell-based, Hepatocyte.
The nature of data set [12]: Half life in mouse at 10 mg/kg, po. The class given is ADME, organism-based. The following applies: in vivo.
The nature of data set [13]: Half life in mouse at 1 mg/kg, iv. The following applies: in vivo. In kind it is ADME, organism-based.
Data set [14] is described as follows: Unbound Cmax in mouse at 10 mg/kg, po or 1 mg/kg, iv. In kind it is ADME, organism-based. The following applies: in vivo.
A short description of data set [15]: Unbound brain to plasma partition coefficient in mouse at 10 mg/kg, po or 1 mg/kg, iv after 8 hrs. In kind it is ADME, organism-based. The following applies: read-out: K(p,uu,brain).
The nature of data set [16]: Bioavailability in mouse at 10 mg/kg, po or 1 mg/kg, iv. The class given is ADME, organism-based. The following applies: in vivo.
The nature of data set [17]: Clearance in mouse at 10 mg/kg, po or 1 mg/kg, iv. The class given is ADME, organism-based. The following applies: in vivo.
The nature of data set [18]: Volume of distribution at steady state in mouse at 10 mg/kg, po or 1 mg/kg, iv. The following applies: in vivo. The class given is ADME, organism-based.
Data set [19] deals with Muscarinic acetylcholine receptor M3 (Homo sapiens, UniProt P20309). The experiment in a line: Antagonist activity at M3 receptor (unknown origin).

SMILES strings stand for the structures.

Chain of Voltage-gated inwardly rectifying potassium channel KCNH2 (Q12809 whole entry): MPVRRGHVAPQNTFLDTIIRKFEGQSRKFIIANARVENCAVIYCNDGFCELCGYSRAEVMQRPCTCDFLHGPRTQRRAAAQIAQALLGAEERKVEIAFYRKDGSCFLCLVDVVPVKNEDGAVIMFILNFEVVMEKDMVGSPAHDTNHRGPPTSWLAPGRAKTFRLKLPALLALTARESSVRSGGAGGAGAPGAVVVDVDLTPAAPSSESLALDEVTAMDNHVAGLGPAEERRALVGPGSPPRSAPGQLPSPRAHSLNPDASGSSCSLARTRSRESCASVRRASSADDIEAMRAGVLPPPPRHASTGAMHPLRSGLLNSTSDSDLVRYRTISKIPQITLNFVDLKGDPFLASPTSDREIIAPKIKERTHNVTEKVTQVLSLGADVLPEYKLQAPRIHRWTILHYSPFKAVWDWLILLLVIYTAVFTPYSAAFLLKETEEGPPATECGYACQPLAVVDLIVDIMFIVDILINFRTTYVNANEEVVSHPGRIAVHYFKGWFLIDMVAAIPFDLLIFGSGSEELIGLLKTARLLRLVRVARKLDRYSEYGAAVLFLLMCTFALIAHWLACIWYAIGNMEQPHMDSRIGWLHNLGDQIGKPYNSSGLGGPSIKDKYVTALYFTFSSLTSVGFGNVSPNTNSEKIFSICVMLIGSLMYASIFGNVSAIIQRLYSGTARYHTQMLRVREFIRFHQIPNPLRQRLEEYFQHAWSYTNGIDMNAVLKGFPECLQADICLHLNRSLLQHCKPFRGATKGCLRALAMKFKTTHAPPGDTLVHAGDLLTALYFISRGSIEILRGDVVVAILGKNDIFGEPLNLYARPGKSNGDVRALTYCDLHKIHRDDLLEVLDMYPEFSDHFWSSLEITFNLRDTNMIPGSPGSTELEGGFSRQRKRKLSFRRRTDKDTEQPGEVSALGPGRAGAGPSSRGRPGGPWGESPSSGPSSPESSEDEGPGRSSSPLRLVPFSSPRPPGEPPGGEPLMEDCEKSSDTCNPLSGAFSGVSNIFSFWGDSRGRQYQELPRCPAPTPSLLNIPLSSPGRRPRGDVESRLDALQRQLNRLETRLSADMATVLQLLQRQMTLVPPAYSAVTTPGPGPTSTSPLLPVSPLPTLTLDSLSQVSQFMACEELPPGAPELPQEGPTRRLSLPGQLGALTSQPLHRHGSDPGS
Chain of Muscarinic acetylcholine receptor M3 (P20309 whole entry): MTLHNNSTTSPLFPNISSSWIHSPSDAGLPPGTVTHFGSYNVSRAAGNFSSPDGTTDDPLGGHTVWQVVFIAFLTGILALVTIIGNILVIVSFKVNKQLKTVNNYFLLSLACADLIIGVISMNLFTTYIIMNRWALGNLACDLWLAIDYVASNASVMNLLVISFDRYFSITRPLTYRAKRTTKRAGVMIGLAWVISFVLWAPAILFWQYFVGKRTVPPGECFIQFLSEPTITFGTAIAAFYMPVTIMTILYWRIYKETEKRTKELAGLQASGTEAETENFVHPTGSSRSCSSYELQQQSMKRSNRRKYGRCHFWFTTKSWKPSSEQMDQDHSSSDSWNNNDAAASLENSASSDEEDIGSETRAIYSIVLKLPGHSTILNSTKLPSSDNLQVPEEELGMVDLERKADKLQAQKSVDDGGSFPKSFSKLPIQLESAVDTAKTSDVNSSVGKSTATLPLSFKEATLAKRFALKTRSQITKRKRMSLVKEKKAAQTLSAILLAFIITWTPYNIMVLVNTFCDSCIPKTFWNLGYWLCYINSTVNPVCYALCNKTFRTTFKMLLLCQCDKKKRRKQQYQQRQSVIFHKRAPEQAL

Usually EC50 stands for the concentration needed to bring the measured effect to its halfway point. Broadly, the IC50 is the concentration that inhibits the measured activity by half. A lower IC50 goes with inhibition by little substance. A word on the Papp A→B: it is the apparent permeability from the apical to the basolateral side of a cell layer. As a reminder, the efflux ratio is the permeability from basolateral to apical divided by that in the opposite direction, in the common usage. As usually defined, the fraction unbound is free concentration divided by total concentration. As a reminder, the half-life is the time needed for the level to fall by half in the phase considered. As a reminder, the bioavailability is dose-corrected exposure relative to a reference, in per cent. A lower bioavailability goes with poor availability. In the case of `OCCN1CC[C@@]2(CN=C(N3CCc4ccccc4[C@@H]3c3ccc(F)cc3)O2)C1`, a half-maximal response in data set [1] (EC50) required 318 nM. The molecule further registered an IC50 in data set [2] of 4400 nM. Also, the Papp A→B in [3] was determined as 2.2 ×10⁻⁶ cm/s. For the same molecule, the efflux ratio in data set [4] came to 1.52. In addition, the fraction unbound in data set [5] turned out to be 0.091; in data set [6], 0.151; in [7], 0.042. For the same molecule, the half-life in [8] is 0.517 h; in [10], above 2 h; in data set [12], 3.3 h; in [13], 2.1 h. Besides, the CLH is 22.25 µL/min/mg in data set [9] and below 14.7 µL/min/mg in [11]. This molecule gave a fCmax in data set [14] of 8 nM. Also, the Kp uu at 8 h in data set [15] was 3.84. Besides, in data set [16], the bioavailability was 6.1%. Moreover, in data set [17], the CL worked out at 129 mL/min/kg. This molecule also showed a Vdss in data set [18] of 18.5 L/kg.

`Fc1ccc([C@H]2c3ccccc3CCN2C2=N[C@H](C3(F)CNC3)CO2)cc1` returned an EC50 in [1] of 83 nM. This molecule returned a concentration for half-maximal inhibition (IC50) in data set [2] of 3100 nM. The Papp A→B in [3] was 0.53 ×10⁻⁶ cm/s. Moreover, the efflux ratio in [4] is 1.11. For the same molecule, the unbound share (fraction unbound) was 0.031 in data set [5], 0.055 in data set [6] and 0.009 in data set [7]. The half-life was above 2 h in data set [8], above 2 h in data set [10], 4.8 h in data set [12] and 7.4 h in data set [13]. The CLH in [9] is below 68.2 µL/min/mg; in [11], below 14.7 µL/min/mg. For the same molecule, the fCmax in data set [14] was 62 nM. Besides, in data set [15], the Kp uu at 8 h was determined as 2.91. In data set [16], this molecule displayed a bioavailability of 99%. The CL in [17] turned out to be 34.7 mL/min/kg. Also, in data set [18], the Vdss was 15.2 L/kg.

Regarding `O=C(O[C@H]1CN2CCC1CC2)N1CCc2ccccc2[C@@H]1c1ccccc1` [SOLIFENACIN], the figures for the EC50 in data set [1] and in [19] were 1300 nM and 24 nM, respectively.

In turn, `Fc1ccc([C@H]2c3ccccc3CCN2C2=NC[C@@H](C3CN4CCC3CC4)O2)cc1` (some centres undefined) showed an EC50 in data set [1] of 218 nM. In [2], the IC50 was 690 nM. Also, the Papp A→B in data set [3] was determined as 3.07 ×10⁻⁶ cm/s. The efflux ratio in [4] stood at 2.12. Moreover, the fraction unbound was 0.056 in data set [5], 0.141 in data set [6] and 0.02 in data set [7]. For the same molecule, the half-life is 0.0785 h in [8], 0.242 h in [10], 11.4 h in data set [12] and 4.17 h in data set [13]. The values for the CLH in data set [9] and in [11] were 147.03 µL/min/mg and 47.79 µL/min/mg, respectively. The molecule also displayed a fCmax in data set [14] of 6 nM. For the same molecule, in data set [15], the Kp uu at 8 h amounted to 2.7. The molecule also had a bioavailability in data set [16] of 25%. The same molecule showed a CL in data set [17] of 156 mL/min/kg. Moreover, the Vdss in data set [18] was 38.8 L/kg.

With `O=C(O[C@H]1CN2CCC1CC2)N1CCc2ccccc2[C@@H]1c1ccc(F)cc1`, the half-maximal effective concentration (EC50) worked out at 257 nM in [1] and 17000 nM in [19]. The molecule further showed an IC50 in data set [2] of 340 nM.
